As usually defined, the DC50 is the midpoint of the concentration-degradation curve.

What all share (type): cell-based
One test has as its system MV-411 cell line. The experiment in a line: Inhibition of cell proliferation, MV-411 (CCK-8). The conditions noted are these: Homo sapiens, MV4-11, 120 h, MV411 cells, 5 days, read-out: Inhibition activity on the proliferation of different cell lines MV411 (IC50). On the procedure:
• MV-411 cell line (COBIER, CBP-60522) • FBS (GEMINI, Cat. No. 900-108) • 0.01M PBS (Biosharp, Cat. No. 162262) • IMDM (Hyclone, Cat. No. SH30228.01) • Penicillin-Streptomycin (Gibco, Cat. No. 15140122) • DMSO (Sigma, Cat. No. D5879) • Cell counting kit-8 (Signalway Antibody, Cat. No. CP002) • Centrifuge Tube, 15 ml (Excell Bio, Cat. No. CS015-0001) • Cell Culture Dish, (WHB, Cat. No. CS016-0128) • 96-well cell culture cluster (Corning, Cat. No. 3599)
• (1) Cell culture medium: IMDM medium+10% FBS+1% Pen Strep; • (2) PBS buffer: PBS powder was dissolved in 2 L of ultrapure water and sterilized;
(§1) (1) MV-411 cells were cultured in the cell culture medium, and then well-growing cells were selected and inoculated in a 96-well plate at 80 μL/well, with 2×10^4 cells/well. The plate was incubated overnight in a 5% CO2 cell incubator at 37° C.
(§2) (2) 10 mM storage solution of each drug was prepared using dimethylsulfoxide (DMSO). The stock solution was diluted in a ratio of 1:3 with DMSO before use, and then the solution was serially diluted in a ratio of 1:3, to obtain 9 gradient concentrations. Each concentration was further diluted with the medium in a ratio of 1:200 (to ensure that the DMSO concentration in the culture system was 0.1%). Two wells were set for each concentration. 20 μL of each compound solution was added to the cell culture well (with a final concentration of 10 μM, 3.3 μM, 1.1 μM . . . ). The plate was gently shaken and mixed. Additionally, 3 negative control wells (only containing cells) and 3 blank control wells (only containing the medium) were included (6 wells were each added with 20 μL of DMSO diluted with the medium in a ratio of 1:200).
(§3) (1) After 5 days of cultivation, 10 μL of CCK-8 was added to each well, and then the plate was further cultured for 3 h at 37° C. in a 5% CO2 cell incubator.
(§4) (2) The absorbance (OD value) was measured at 450 nm with a multifunctional microplate reader. (3) The data were analyzed using the Dose-response-inhibition equation in GraphPad Prism8 software to obtain the IC50 value.

Another test has as its system NCI-H358. Kind of test: Inhibition of cell proliferation, NCI-H358 (CCK-8). As to conditions: Homo sapiens, NCI-H358 cells, read-out: Inhibition activity on the proliferation of different cell lines NCI-H358 (IC50). As for the experimental part:
as §1, §2, §3, §4
Using a similar method, the IC50 value (nM) for the inhibitory activity of the compound according to the present invention against different cell lines was obtained, and the results are shown in Table 3 (++++: IC50>5 μM; +++: 1 μM<IC50<5 μM; ++: IC50<1 μM).

For test [1], the target named is T1, SHP2 protein (Homo sapiens, UniProt Q06124).
T1 sequence (Q06124 1-593): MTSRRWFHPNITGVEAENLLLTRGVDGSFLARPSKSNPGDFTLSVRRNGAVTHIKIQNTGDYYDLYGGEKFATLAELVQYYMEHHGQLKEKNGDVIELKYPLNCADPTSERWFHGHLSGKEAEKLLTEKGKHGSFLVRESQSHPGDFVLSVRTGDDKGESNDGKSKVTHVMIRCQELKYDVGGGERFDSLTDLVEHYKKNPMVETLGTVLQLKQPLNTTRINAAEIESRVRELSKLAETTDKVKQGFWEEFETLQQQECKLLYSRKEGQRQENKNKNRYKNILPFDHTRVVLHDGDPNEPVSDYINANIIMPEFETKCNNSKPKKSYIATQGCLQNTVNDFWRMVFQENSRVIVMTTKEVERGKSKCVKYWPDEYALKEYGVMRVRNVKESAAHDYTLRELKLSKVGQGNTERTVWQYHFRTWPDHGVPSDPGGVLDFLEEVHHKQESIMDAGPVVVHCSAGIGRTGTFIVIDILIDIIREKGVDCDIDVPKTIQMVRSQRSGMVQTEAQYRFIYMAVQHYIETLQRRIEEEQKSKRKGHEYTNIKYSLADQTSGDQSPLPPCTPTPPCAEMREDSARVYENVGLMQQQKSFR
Kind of test: Degradation activity on SHP2 protein in NCI-H358 cells (Western blot, DC50). Set-up: endogenous in cells. As to conditions: read-out: Degradation activity for differenct cell lines NCI-H358 (DC50). The method in brief: (§5)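 Cells were treated 24 h at 37 °C with compound (0.1–100 nM final, 0.1% DMSO). SHP2 was measured by Western blot with GAPDH as loading control, densitometry normalized to DMSO (100%). DC50, the concentration giving 50% degradation, came from a dose-response fit.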
(A western blot detects proteins with antibodies after separation by electrophoresis.)

Test [2] has as its target T1, SHP2 protein. The experiment in a line: Degradation activity on SHP2 protein in MIA Paca-2 cells (Western blot, DC50). The arrangement: endogenous in cells; host or cells: MIA Paca-2 cells. The conditions noted are these: read-out: Degradation activity for differenct cell lines MIA Paca-2 (DC50). The method in brief: as §5

Take `CC1(N)CCN(c2cnc(Sc3cccc(NC(=O)CCCCCCCCN4CCN(c5ccc(C(=O)NCc6ccc7c(c6)CN(C6CCC(=O)NC6=O)C7=O)nn5)CC4)c3)cn2)CC1` (stereo not drawn) [Compound 63]: the IC50 in the test with MV-411 cell line and in the test on NCI-H358 was less than 1000 nM in each case. For the same molecule, the DC50 on SHP2 protein [1] and at SHP2 protein [2] was less than 100 nM each time.
Consider `CC1(N)CCN(c2cnc(Sc3cccc(NC(=O)CCCCCCCCN4C5CCC4CN(c4ccc(C(=O)NCc6ccc7c(c6)CN(C6CCC(=O)NC6=O)C7=O)nn4)C5)c3)cn2)CC1` (stereo not drawn) [Compound 119], for which the IC50 in the test on MV-411 cell line and with NCI-H358 was less than 1000 nM each time. Besides, the DC50 at SHP2 protein [1] and on SHP2 protein [2] was less than 100 nM throughout.
On to `CCC1(N)CCN(c2cnc(Sc3cccc(NC(=O)CCCCCCN4CC5(CCN(c6ccc(C(=O)NCc7ccc8c(c7)CN(C7CCC(=O)NC7=O)C8=O)nn6)C5)C4)c3)cn2)CC1` (stereo not drawn) [Compound 161], for which the IC50 in the test on MV-411 cell line was less than 1000 nM; in the test on NCI-H358 it was 1000 to 5000 nM. In addition, the values for the DC50 at SHP2 protein [1] and at SHP2 protein [2] were 100 to 1000 nM and less than 100 nM, respectively.
For the molecule `NC1(CO)CCN(c2cnc(Sc3cccc(NC(=O)CCCCCCN4CC5(CCN(c6ccc(C(=O)NCc7ccc8c(c7)CN(C7CCC(=O)NC7=O)C8=O)nn6)C5)C4)c3)cn2)CC1` (stereo not drawn) [Compound 168], the figures for the IC50 with MV-411 cell line and in the test on NCI-H358 were less than 1000 nM and 1000 to 5000 nM, respectively. Further, the figures for the DC50 at SHP2 protein [1] and on SHP2 protein [2] were 100 to 1000 nM and less than 100 nM, respectively.
Taken in the same sequence, the figures for `CC1(N)CCN(c2cnc(Sc3cccc(NC(=O)CCCCCCCCN4CCN(c5ccc(C(=O)NCc6ccc7c(c6)CN(C6CCC(=O)NC6=O)C7=O)nn5)CC4C(F)(F)F)c3)cn2)CC1` (stereo not drawn) [Compound 174] were 1000 to 5000 nM, 1000 to 5000 nM, less than 100 nM and less than 100 nM.
As for `Cc1ncsc1-c1ccc([C@H](C)NC(=O)[C@@H]2C[C@@H](O)CN2C(=O)[C@@H](NC(=O)CCCCCCCCN2CCN(C(=O)CCC(=O)Nc3cccc(Sc4ncc(N5CCC(C)(N)CC5)nc4N)c3Cl)CC2)C(C)(C)C)cc1` [Compound 999], the values for the IC50 with MV-411 cell line and in the test on NCI-H358 were less than 1000 nM and 1000 to 5000 nM, respectively. The half-maximal degradation concentration (DC50) on SHP2 protein [1] and on SHP2 protein [2] was less than 100 nM each time.

The values above are taken from US20240383908A1, “SYNTHESIS AND APPLICATION OF PHOSPHATASE DEGRADER” (HINOVA PHARMACEUTICALS INC., priority 2021, published 2024).
